For 87 compounds, melting point results are on record in a melting point compilation (Tetko et al.; mined from patent text by program, amines drawn as free bases though some values may be those of a salt).

Broadly, the melting point is the temperature of the solid-liquid transition.

The compound `Cc1cc(OCCNC(=O)C2Cc3ccccc3N2S(=O)(=O)c2ccc(-c3ccccc3C(F)(F)F)cc2)ccc1CC(=O)O` (configuration not stated) displayed a melting point of 85 to 95 °C.
With `CC(C)(C)c1ccc(C(=O)Nc2cn3c4c(ccc3n2)OCC4)cc1`, the melting point lay in the range of 266 to 268 °C.
On to `Cc1ccc(N2C(=O)C(O)=C(C(=O)c3ccc(C(C)C)cc3)C2c2ccc(OC(F)(F)F)cc2)cn1` (configuration not stated), for which the melting point lay in the range of 214 to 218 °C.
In turn, `OCc1cnoc1-c1cc(Cl)cc(Cl)c1` came in with a melting point of 104 to 105 °C.
The compound `COc1ccccc1OCCCc1oc(N2CCOCC2)nc1-c1ccc(Cl)cc1` yielded a melting point of 81 to 82 °C.
Compound `Cn1c(C(F)(F)F)cc(=O)n(-c2cc(OCCC3OCCO3)c(Cl)cc2F)c1=O` displayed a melting point of 125 to 127 °C.
For the compound `Nc1c(I)c(-c2ccccc2)nn1-c1c(Cl)cc(C(F)(F)F)cc1Cl`, the melting point was 162 to 164 °C.
`CCOC1C=CC(=O)N1S(=O)(=O)c1ccccc1` (configuration not stated) gave a melting point of 117 to 119 °C.
`COc1cccc2c1Cc1ccccc1C2(CCO)CCO`: the melting point lay in the range of 164 to 167 °C.
For the compound `COC(=O)CC1(CC(=O)N2CCN(C(=O)CC3=C(C(=O)OC)[C@H](c4c(Cl)cccc4Cl)C(C(=O)OC)=C(C[S@](=O)c4ccccc4)N3)CC2)CCCC1`, the melting point fell in the range of 100 to 104 °C.
`Cc1cc(C)c2cccc(OCc3c(Cl)ccc(S(=O)(=O)N4CCC[C@H]4C(=O)NCCNC(=O)COc4ccc(C=NN)cc4)c3Cl)c2n1` registered a melting point of 156 to 160 °C.
The compound `CC(C)(C(=O)Cl)C(=S)Cl` gave a melting point of 112 to 114 °C.
As to `CCCOc1ccc(C2=NN(C(=O)Nc3ccc(C(F)(F)F)cc3)CC2N(CCC)C(=O)OCC(Cl)(Cl)Cl)cc1` (configuration not stated), the melting point was 162 to 163 °C.
The same measure for `COc1cc(/C=[N+](\[O-])C(C)C)ccc1O`: 178 to 180 °C.
In turn, `CC(=O)OCc1nc2nccnc2c(=O)[nH]1` returned a melting point of 210 to 212 °C.
`O=C1c2ccccc2C(=O)N1OCCN(CCO)CCON1C(=O)c2ccccc2C1=O` yielded a melting point of 136 to 138 °C.
Next, `CCOCCOc1c(C)cc(Oc2ccc3c(c2)C=C(C(=O)O)CCS3(=O)=O)cc1C`: 149 to 153 °C.
As for `CC(=O)NC(=N)N(C)C1CCN(c2nc3ccccc3n2Cc2ccc(F)cc2)CC1`, the melting point came to 192 °C.
Regarding `Cc1ccc(S(=O)(=O)N2CCC(c3ccc(C=O)cc3)CC2)cc1`, the melting point was in the range of 134 to 137 °C.
The compound `O=C(O)c1ccc(S(=O)(=O)Oc2ccc(-c3ccc(-c4c(Cc5ccccc5)sc5ccccc45)cc3)cc2Br)cc1O` showed a melting point of 117 to 119 °C.
Next, `CCOC(=O)c1cnccc1CCCOc1cccnc1Oc1cccc(Cl)c1`: 140 to 164 °C; `CC(C)(C)C(=O)Nc1nn(-c2ccc(F)cc2F)c2c1C1CCC2C1` (configuration not stated): 136 to 138 °C.
The compound `O=C(O)c1cccc2c(Cl)c3ccccc3cc12` displayed a melting point of 275 to 277 °C.
`COC(=O)CS(=O)CCCCN(c1cnc(-c2ccccc2)c(-c2ccccc2)n1)C(C)C` (configuration not stated) had a melting point of 128 to 130 °C.
With `Cc1oc(-c2ccccc2)nc1COc1ccc(/C=C/C=C/C#N)cc1`, the melting point is 120 to 121 °C.
In turn, `Cc1nc2cc(Cl)ccc2c(=O)n1C` displayed a melting point of 162 to 165 °C.
Compound `O=C1CSC(C(=O)Nc2ccc(Cl)cc2)Cc2ccc(Cl)cc21` (configuration not stated) yielded a melting point of 235 to 236 °C.
`CNC(=O)c1ccc(N2CCN(Cc3cc(C)c4c(c3)NC(=O)C(C)O4)CC2)c(Cl)c1` (configuration not stated) returned a melting point of 232 °C.
On to `CCCC1N=C2C(=C(C)C(Cl)=NC2(N)CCOCCNC(=O)c2ccccc2)N1` (configuration not stated), for which the melting point was in the range of 188 to 189 °C.
The same measure for `CC1=NN(c2ccccc2O)C(=O)C1`: 212 to 214 °C.
`Cn1ccc(-c2ccc(C(=O)O)c(Cl)c2)n1` registered a melting point of 232 to 233 °C.
Compound `CC(C(=O)c1ccc(Cl)cc1)N1CCC(O)(Cc2ccccc2)CC1` (configuration not stated) displayed a melting point of 136 °C.
Turning to `Cc1[nH]c(C#N)c(C)c1-c1nc2ccc(C(=O)c3ccccc3)cc2[nH]1`, the melting point was 159 to 163 °C.
The same measure for `Nc1cc(C(F)(F)F)ccc1C=C1NC(=S)NC1=O`: 240 °C; for `O=C(CNC(=O)c1ccc([N+](=O)[O-])c(I(=O)=O)c1)OCc1ccccc1`: 196 to 198 °C.
As to `CCCc1nc2c(N)nc3cc(C)ccc3c2o1`, the melting point was in the range of 188 to 189 °C.
Next, `CC(C)c1cccc(C(C)C)c1NC(=O)NCCN1CCN(CCSc2nc3ccccc3[nH]2)CC1`: 120 to 122 °C.
For `Cc1nc(-c2cccc(C(F)(F)F)c2)c2nc(-c3ccccc3)cc-2[nH]1`, the melting point lay within 206 to 208 °C.
Compound `CCOC(=O)C(C)(C(=O)OCC)c1cc(=O)n(Cc2ccccc2)c2ccccc12` yielded a melting point of 130 to 131 °C.
Next, `Cc1cc(C)n(-c2cncc(Nc3ccc(Cl)cc3)n2)n1`: 157 to 159 °C; `COC(=O)C1=C(CF)NC(C)=C(C(=O)OC2CCCC2)C1c1cccc([N+](=O)[O-])c1C` (configuration not stated): 167 to 168 °C.
The same measure for `C#CC(C)(O)C1CCC2C3CC=C4CC(OC)CCC4(C)C3CCC21C` (configuration not stated): 175 to 176 °C.
The same measure for `CN(C(=O)NCCc1ccc(F)cc1)c1cccc(-c2ccc(CCC(=O)O)cc2)c1`: 146 °C.
In turn, `COc1cccc(C(O)CCN2CC=C(c3ccc(Cl)cc3)CC2)c1` (configuration not stated) had a melting point of 100 to 102 °C.
For the compound `O=C(CCl)Nc1cc(C2(Cl)C=C(C(F)(F)F)C=NC2)ccc1O` (configuration not stated), the melting point is 205 °C.
`Cc1oc(-c2ccccc2)nc1CCOc1ccc(CC(F)(C(=O)NS(C)(=O)=O)c2ccccc2)cc1` (configuration not stated) registered a melting point of 118 to 120 °C.
As for `CC(=O)N(O)Cc1cccc([N+](=O)[O-])c1`, the melting point is 80 °C.
For `NC(=O)Cc1cccc(C(O)c2ccccc2)c1N` (configuration not stated), the melting point fell in the range of 198 to 199 °C.
The same measure for `CN(C)C1(c2ccccc2)CCC(=CC(=O)N2CCC(c3c[nH]c4ccc(Cl)cc34)CC2)CC1` (configuration not stated): 115 to 119 °C; for `CCc1ccnc2cc(OC)c(OCc3ccccc3)cc12`: 132 to 134 °C.
On to `COc1ccc(-c2cccc(C(=O)O)c2)c2cc(Cc3cccc(C(F)(F)F)c3)oc12`, for which the melting point lay in the range of 118 to 119 °C.
Consider `CCCc1nc2cc(C(=O)c3ccccc3)ccc2[nH]1`, for which the melting point is 131 to 132 °C.
Next, `CC(C)(COc1ccc(CNC(=O)C2Cc3ccccc3N2S(=O)(=O)c2ccc(-c3cccc(C(F)(F)F)c3)cc2)cc1)C(=O)O` (configuration not stated): 95 to 105 °C; `C#CCCCn1ncc2c(OCC)c(C(=O)OCC)cnc21`: 84 to 85.5 °C; `CSCc1cc2ccccc2n(-c2ccccc2)c1=O`: 138 to 140 °C.
For the compound `CSc1nn(C(=O)NC(C)(C)C)c(=O)n1N`, the melting point was 134 °C.
`O=C(NC1CCN(CCC2CCOc3ccccc32)CC1)c1cc2ccccc2o1` (configuration not stated) yielded a melting point of 146 to 148 °C.
As for `CCOc1nc(NC)nc(NC(=O)NS(=O)(=O)c2cccc3c2nnn3C)n1`, the melting point was 203 to 209 °C.
Consider `c1ccc2c(-c3cnc(CCC4CCCCN4)s3)c[nH]c2c1` (configuration not stated), for which the melting point lay within 155 to 157 °C.
In turn, `CCOC(=O)C(CO)NC(=O)C(N)(CC(=O)O)NC(=O)C(C)C` (configuration not stated) gave a melting point of 175 to 178 °C.
In turn, `Brc1c(C2=NOCCS2)sc2ccccc12` yielded a melting point of 80 to 85 °C.
Regarding `COc1cc2c(c(Cl)c1Cl)C(=O)C(C)C2` (configuration not stated), the melting point was found to be 129 °C.
With `CC(F)C(C)(N)C(N)=O` (configuration not stated), the melting point turned out to be 81 °C.
The same measure for `COCCNC(=O)c1cccc(-c2cccc3c2nc(Oc2ccc(Cl)c(F)c2)n3C)c1`: 150 to 151 °C; for `O=C1CN(C/C=C/c2ccc(Cl)cc2)CCN1c1cc(F)ccc1[N+](=O)[O-]`: 57 °C; for `C[C@@H]1N=C(c2ccccc2)c2cc(I)ccc2N(C)C1=O`: 115 °C.
Next, `Cc1c(Cc2ccccc2)c(=O)oc2cc(OCC(=N)NO)cc(OCC(=N)NO)c12`: 155 to 160 °C.
The same measure for `O=P(O)(CCCNCc1cc(Cl)cc(Cl)c1)CC1CCCCC1`: 231 to 233 °C; for `CC(C)(CNc1ccnc2cc(Cl)ccc12)NCc1ccc(F)c(Cl)c1`: 164 to 165 °C.
Turning to `CCn1c(C=O)cnc1[N+](=O)[O-]`, the melting point is 38 to 40 °C.
Compound `CN1C(=O)C(NC(=O)Nc2ccc(F)cc2)N=C(c2ccccc2)c2ccccc21` (configuration not stated) returned a melting point of 269 to 270 °C.
Next, `COc1ccc(C(C#N)C(C)C)cc1OC` (configuration not stated): 45.5 to 49 °C; `CCSc1cc(C)nc(SCC)c1NC(=O)CN1CCN(CCSc2nc3cccc(C(F)(F)F)c3o2)CC1`: 107 to 108 °C; `CCCS(=O)(=O)N[C@H](C(=O)NCCc1ccc(OCC#Cc2ccc(Cl)cc2)c(OC)c1)C(C)C`: 131 to 133 °C.
Compound `CC(C)n1c(S)nc(-c2ccc(F)cc2)c1-c1ccc(F)cc1` returned a melting point of 308 to 312 °C.
The compound `COc1cccc(C=C(NC=O)c2ccncc2)c1OC` had a melting point of 161 to 162 °C.
Compound `CCOC(=O)c1nc(-c2ccc(CN(C)C)cc2)[nH]c1-c1ccc(Cl)cc1` had a melting point of 117 to 118 °C.
In the case of `CCCCC(C)OC(=O)c1ccccc1S(=O)(=O)NC(=O)Nc1nc(C)nc(OC)n1` (configuration not stated), the melting point is 125 to 130 °C.
`CS(=O)(=O)CS(C)(=O)=O`: the melting point amounted to 146 °C.
Consider `COc1ccc2c(=O)c(CO)cn(C)c2c1`, for which the melting point is 164 to 166 °C.
Consider `CS(=O)(=O)c1ccc(Cl)c(C(=O)Nc2ccc(-n3nc(C(F)(F)F)cc3C3CC3)cc2)c1`, for which the melting point was 132 to 135 °C.
Consider `CC(C)Cn1cc(-c2ccc3nnn(Cc4ccc5ncccc5c4)c3n2)cn1`, for which the melting point was 160 to 163 °C.
Turning to `CNc1cc(C)ccc1C(C)=O`, the melting point worked out at 47 °C.
With `OCCN1CCN(C(c2ccccc2)(c2ccccc2)c2ccccc2)CC1`, the melting point worked out at 82 °C.
Turning to `O=C(CNS(=O)(=O)c1ccc(Nc2nccc(Nc3ccc(F)cc3)n2)cc1)NC1CCOCC1`, the melting point lay within 253 to 254 °C.
`CCc1nc2c(c(C)c(C)n3nnnc23)n1CCOCCN` yielded a melting point of 181 to 183 °C.
For the compound `CC1=C(C(=O)Nc2cc(C(=O)OC(C)C)c(C)cc2F)SCCO1`, the melting point lay within 119 to 122 °C.
